Test results: patent US20040106135A1, “Assay for PPAR ligand dependent gene modulation” (priority 2002, published 2004)
Like-named read-outs stand apart in the source and are kept apart here.

Assays:
Type in all cases: cell-based, human
HK-2 cells = experiment: Transcriptional profiling by DNA microarray, HK-2 cells; conditions: 300 nM GW9578, 24 hours
Procedure: Points corresponding to PDK-4 and ADRP are highlighted in the plot. Points falling outside of the inner lines are changed by greater than 2-fold; those falling outside the outer lines by greater than 3-fold.
(§1) Expression profiling: Expression profiling of RNA samples was performed essentially as described (Lockhart et al., (1996) Nat. Biotechnol. 14:1675-80) using the Affymetrix human U95Av2 array. Briefly, RNA was isolated from 100 mm cell culture dishes, DNased, and 15 μg used as a template for double stranded cDNA synthesis according to standard protocols (Invitrogen). Reverse transcription was primed using a T7-modified oligo-dT primer (5-[…]-d(T)24-3′) (SEQ ID NO: 1). In vitro transcription was then performed on each double stranded cDNA synthesis, according to the manufacturer's (Enzo Diagnostics) instructions. The resultant cRNA products were purified using RNeasy columns (Qiagen), pooled, and quantitated spectrophotometrically. […]
(§2) Data Analysis: Affymetrix CEL files from GeneChip 4.0 (Affymetrix) were imported into Resolver 2.0 under an empirically derived Affymetrix error model (Rosetta Inpharmatics). […] Accordingly, the statistical significance (P-value) of a given expression data point takes into account the underlying error associated with the Affymetrix transcript abundance measurements as determined by this platform-specific error model. […]

Caki-1 cells = experiment: Transcriptional profiling by DNA microarray, Caki-1 cells
Procedure: as §1, with “spectrophotometrically. For each sample, 20 μg of in vitro transcribed cRNA was fragmented by heating the sample to 94° C. in the presence of 40 mM Tris-acetate, pH 8.1, 100 mM potassium acetate, and 30 mM magnesium acetate.” for “spectrophotometrically.”
as §2

[1] = tested on: PDK-4 mRNA in HK-2 cells (endogenous PPARα); experiment: PDK-4 mRNA induction in HK-2 cells (real-time RT-PCR); conditions: for EC50: 24 hours
Procedure: Values were normalized to 18S rRNA levels.
EC50 values were determined for PDK-4 mRNA induction by quantitative PCR under conditions used to generate the data shown in FIG. 2. EC50 values in the transactivation assays were determined by transfection of an expression plasmid encoding a GAL4-hPPARα chimera into cells co-expressing a luciferase reporter gene under the transcriptional control of GAL4 upstream activating elements.
Cell culture: The following cell lines were obtained from American Type Culture Collection (ATCC) and cultured in the recommended medium for each cell type: HepG2, HK-2, Caki-1, LNCaP (CloneFGC), SW872, and ACHN. PPARα compounds were prepared to a 500× stock in DMSO; corresponding control cells received an equal volume of vehicle (0.2% v/v).
Real-time PCR: Fluorescence-based real-time PCR was performed essentially as described (Abbaszade et al., (1999) J. Biol. Chem. 274:23443-23450). Primers and probes designed from the hamster pyruvate dehydrogenase kinase 4 (PDK4) sequence (Genbank Accession No. AF321218), human pyruvate dehydrogenase kinase 4 (PDK-4) sequence (Genbank Accession No. NM_002612) and human adipose differentiation-related protein (ADFP) sequence (Genbank Accession No. NM_001122) were synthesized and purified by Biosearch Technologies. Probes for ADFP and PDK-4 were modified at the 5′ end with the reporter dye 6-FAM, and at the 3′ end with the quencher dye Black Hole Quencher 1 (Biosearch Technologies). Probes detecting rat 18S rRNA were modified at the 5′ end with VIC and at the 3′ end with TAMRA (Biosearch Technologies). For detection of hamster PDK4, primers 5′-[…] (SEQ ID NO:2), 5′[…] (SEQ ID NO:3), and probe 5′-[…] (SEQ ID NO:4) were used. For detection of human PDK4, primers 5′-[…] (SEQ ID NO:5), 5′-[…] (SEQ ID NO:6), and probe 5′-[…] (SEQ ID NO:7) were used. For detection of human ADFP, primers 5′-[…] (SEQ ID NO:8), 5′-[…] (SEQ ID NO:9), and probe 5′-[…] (SEQ ID NO: 10) were used. For detection of 18s rRNA, primers 5′-[…] (SEQ ID NO:11), 5′-[…] (SEQ ID NO:12), and probe 5′-[…] (SEQ ID NO:13) were used. Template cDNA was generated using the Advantage RT-PCR kit according to the manufacturer's (Clontech) instructions using random hexamers and 1 μg of DNaseI-treated total RNA. Taqman-based real-time PCR expression profiling was performed using 25 ng of each cDNA according to the manufacturer's (PE Biosystems) instructions with fluorescence being monitored in real-time with an ABI Prism 7700 (PE Biosystems). Relative expression levels were determined essentially as described (Gibson et al., (1996) Genome Res. 6:995-1001) using standard curves for each transcript. Relative abundance was then determined from these standard curves, subtracting mRNA levels obtained from negative control reactions performed in the absence of reverse transcriptase, and normalized to 18S rRNA levels. All expression measurements were performed in duplicate in two independent assays, generating a total of four measurements per cDNA.

## CCCCCCCN(CCc1ccc(SC(C)(C)C(=O)O)cc1)C(=O)Nc1ccc(F)cc1F [GW9578, ureido-thioisobutyric acid]
HK-2 cells
  Increase of ADRP transcript versus controls: approximately 4 fold
  Increase of PDK-4 transcript versus controls: approximately 4 fold
Caki-1 cells
  Changes in gene expression in Caki-1 cells: only minor changes
[1]; RT-PCR, read-out: EC50 for activation of PDK-4 in HK-2 cells
  EC50: ~0.01 µM
[1]; HK-2 cells, 100 nM GW9578
  Time to near maximal increase of PDK-4 mRNA: ≤ 2 h
[1]; PDK-4 mRNA induction by quantitative PCR, normalized to 18S rRNA, read-out: EC50 (μM) in HK-2 (PDK-4)
  EC50: 0.01 µM
